Experimental data from patent US20150253305A1, “METHODS OF IDENTIFYING COMPOUNDS FOR TREATING DEPRESSION AND OTHER RELATED DISEASES” (NORTHWESTERN UNIVERSITY, priority 2012, published 2015).
Peptide text beside a SMILES is read from it.

Assays:
[1] = tested on: Sprague-Dawley rats; test: Ketamine drug discrimination; details: FIG. 5: drug discrimination, place preference, prepulse inhibition, open field
[2] = tested on: Sprague-Dawley rats; test: Open field locomotor activity (line crosses); details: 0.1 μg, 20 min following MPFC infusion
[3] = tested on: Sprague-Dawley rats; test: Porsolt test; details: IV
[4] = tested on: Wnt signaling pathway gene expression; test: Wnt pathway-specific qRT-PCR array in mPFC; type: in vivo, rat
Method: Adult (2-3 month-old) male Sprague-Dawley rats (Harlan Laboratories, Indianapolis, Ind.) were housed 3 to a cage and injected (IV) with one of the following—GLYX-13 (3 mg/kg), ketamine (10 mg/kg), or saline vehicle (1 ml/kg). At 1 and 24 hours after injection (N=5 per time point for each treatment group), rats were sacrificed, their brains were quickly dissected, frozen, and then stored at −80° C. The medial prefrontal cortex (mPFC) was dissected from frozen tissue on ice. An equal volume of the homogenized tissue was used to extract and purify RNA for microarray analysis and to make cDNA for qRT-PCR analysis. All procedures were approved by the Northwestern University IACUC committee and performed in accordance with the NIH Guide for the Care and Use of Laboratory Animals.
Reverse transcription of 1.0 μg of DNAsed, total RNA from 4 rats was primed with oligo(dT) and random hexamers. We utilized SuperScriptIII according to manufacturer's specifications (Invitrogen, Carlsbad, Calif.). A 1:10 dilution of cDNA was used as a template for quantitative real-time PCR, and the analysis was performed with Brilliant SYBR Green qRT-PCR Master Mix (Stratagene) on a Mx3000P Real-Time PCR System. ROX reference dye was included in all reactions. […]

C[C@@H](O)[C@H](N)C(=O)N1CCC[C@H]1C(=O)N1CCC[C@H]1C(=O)N[C@H](C(N)=O)[C@@H](C)O [GLYX-13, L-threonyl-L-prolyl-L-prolyl-L-threonine amide] (H-TPPT-NH2) was tested, and the “ketamine-like addictive sensory motor gating, or sedative side effects” value [1] was “does not show ketamine-like addictive sensory motor gating, or sedative side effects”.
For CNC1(c2ccccc2Cl)CCCCC1=O (stereo not drawn) [Ketamine, ketamine], the “locomotor activity (line crosses in the open field) following MPFC infusion” value [2] was “increased locomotor activity”, the “anti-depressant effect in the Porsolt test” value ([3]; 10 mg/kg) was “produces a long-lasting anti-depressant effect” and the “rapid antidepressant-like effects in the Porsolt test” value ([3]; rat) was “produce rapid antidepressant-like effects”. For the same compound, the “number of genes downregulated (Wnt qRT-PCR array)” value ([4]; 1 and 24 hrs following administration, 10 mg/kg IV, mPFC) was 1 gene and the “Frizzled 2 (Fzd) gene expression (Wnt qPCR array)” value ([4]; following injection, relative to vehicle control rats) was “Significant gene expression changes”.
